According to patent US20060178307A1, “Modulation of NMDA receptor currents via orexin receptor and/or CRF receptor” (priority 2005, published 2006):
Where no end group is shown, it is not given here.

Assays:
[1] = test system: AMPAR/NMDAR ratio of EPSCs in VTA dopamine cells; assay: AMPAR/NMDAR ratio in VTA slices 24 hr after 5-day in vivo treatment; parameters: species or system rat; conditions: 5 days
Description: The next study investigated whether orexin signaling in the VTA is required for the long-term plasticity associated with the development of behavioral sensitization. Long-term synaptic plasticity at excitatory synapses on VTA neurons was examined 24 hr after a 5-day treatment of cocaine (15 mg/kg) or saline (0.9%), a time course shown to induce long-lasting locomotor sensitization to cocaine (Thomas et al., 2001), with or without the OXR1 antagonist, SB 334867 (10 mg/kg, FIG. 5). To assay for synaptic plasticity, the relative contributions of AMPARs and NMDARs to EPSCs recorded in VTA dopamine cells were compared. Consistent with the potentiation observed following acute and 7-day cocaine treatments (Borgland et al., 2004), 5-day treatment with cocaine potentiated the AMPAR/NMDAR ratio compared to saline controls (FIG. 5A, saline: 0.4±0.07, n=4; cocaine: 0.8±0.1, n=4, p<0.05). This potentiation of synaptic plasticity was blocked by 5-day treatment with the OXR1 antagonist, SB 334867, administered 15 min prior to cocaine or saline (FIG. 5A, saline+SB334867: 0.4±0.02, n=5 vs. cocaine+SB334867: 0.5±0.08, n=11, p>0.05). Since OXR1 antagonists block cocaine-mediated potentiation of the AMPAR/NMDAR ratio, orexin A may either facilitate cocaine-mediated synaptic plasticity or enhance synaptic transmission itself. A 5-min orexin A application was performed to determine whether this caused changes in AMPAR/NMDAR ratio either 15 min or 3-4 hours after application (FIG. 5B).
To calculate the AMPAR/NMDAR ratio, an average of 12 EPSCs at +40 mV was computed before and after application of the NMDAR blocker, AP5 (50 μM) for 5 min. NMDAR responses were calculated by subtracting the average response in the presence of AP5 (AMPAR only) from that seen in its absence; the peak of the AMPAR EPSC was divided by the peak of the NMDAR EPSC to yield an AMPAR/NMDAR ratio.
Male Sprague-Dawley Rats (P21-P30; Charles River, N.C.) were singly housed with food and water available ad libitum. A 12 hr light/dark cycle was used, with the lights on at 7:00 A.M. All cocaine injections and behavioral testing were performed during the light cycle for consecutive days. The four treatment groups consisted of rats given 5 daily i.p. injections of SB 334867 (10 mg/kg) 15 min preceding i.p. injection of cocaine (15 mg/kg) or saline (0.9% NaCl), or i.p. injections of vehicle (10% DMSO and 25% β-hydroxy cyclodextrin in saline) 15 min preceding i.p. injection of cocaine or saline. […] Locomotor activity was measured in 17″×17″ chambers lined with three 16-beam I/R arrays. […] Distance traveled was measured using Open Field Activity Software (Med Associates, Inc) and analyzed for estimates of locomotion based on the movement of a given distance and resting delay (movement in a given period of time).

locomotor activity = assay: Locomotor sensitization to cocaine, i.p. OXR1 antagonist, open field; format: in vivo, Sprague-Dawley rats
Description: To determine if orexin signaling plays a role in behavioral sensitization to cocaine, either the OXR1 antagonist SB 334867 (10 mg/kg, i.p.) or vehicle was injected 15 min prior to injecting cocaine (15 mg/kg, i.p) or saline (0.9%), and then the rats were placed in an open field chamber to measure locomotor activity for 1 hour each day for 5 days.
Therefore, to determine if expression of cocaine sensitization requires release of orexin acting at the OXR1 receptor, the OXR1 antagonist SB 334867 (10 mg/kg) was injected with cocaine (15 mg/kg) on day 6 into either cocaine-sensitized or saline-treated rats.
Male Sprague-Dawley Rats (P21-P30; Charles River, N.C.) were singly housed with food and water available ad libitum. A 12 hr light/dark cycle was used, with the lights on at 7:00 A.M. All cocaine injections and behavioral testing were performed during the light cycle for consecutive days. The four treatment groups consisted of rats given 5 daily i.p. injections of SB 334867 (10 mg/kg) 15 min preceding i.p. injection of cocaine (15 mg/kg) or saline (0.9% NaCl), or i.p. injections of vehicle (10% DMSO and 25% β-hydroxy cyclodextrin in saline) 15 min preceding i.p. injection of cocaine or saline. All animals were habituated to the photocell boxes (Med Associates, St. Albans, Vt.) for 2 hours prior to the start of the experiment. All animals were further habituated to the photocell boxes for 30 min prior to 60 min testing session. Locomotor activity was measured in 17″×17″ chambers lined with three 16-beam I/R arrays. A 50 ms scanning rate was used for measurement of beams broken. Distance traveled was measured using Open Field Activity Software (Med Associates, Inc) and analyzed for estimates of locomotion based on the movement of a given distance and resting delay (movement in a given period of time).

AMPAR-induced current = assay: Holding current change on bath-applied AMPA with cyclothiazide; format: cell-based, rat
NMDAR mEPSCs = NMDAR mEPSCs in Mg2+-free buffer at −40 mV; format: cell-based, rat
Description: To examine changes in number or function of NMDARs after orexin treatment NMDAR mEPSCs were recorded in buffer without Mg^2+, and in the presence CNQX (10 μM), glycine (20 μM) and lidocaine (500 μM). Orexin A (100 nM) caused a significant increase in amplitude in NMDAR mEPSCs 15 min after application (17.1±0.7 pA, n=8, FIG. 7B,D,F) compared to untreated neurons (14.2±0.9 pA, n=8, FIG. 7A,D,F) or at 3-4 hours after orexin A application (13.9±0.5 pA, n=7, FIG. 7C,D,F).
AMPAR mEPSCs were recorded in cells voltage-clamped at −70 mV in lidocaine (500 μM), APV (50 μM) and sucrose (100 mM). NMDAR mEPSCs were recorded at −40 mV in Mg2+-free external solution with lidocaine (500 μM), glycine (20 μM), and CNQX (10 μM). mEPSCs were collected using Clampex (Axon Instruments) and analyzed using Mini Analysis Program (Synaptosoft). Detection criteria were set at >10 pA, <1 ms rise-time, and <3 ms decay-time for AMPAR mEPSCs and >10 pA, <1 ms rise-time, and <10 ms decay-time for NMDAR mEPSCs. mEPSC traces were recorded while sampling every 10 μs, the images were filtered at 5 kHz. Averaged mEPSCs were constructed using Mini Analysis Program (Synaptosoft).

Compound	effect on cocaine-induced potentiation of AMPAR/NMDAR ratio ([1]; 10 mg/kg i.p. 15 min prior to cocaine)	AMPAR/NMDAR ratio ([1]; cocaine 15 mg/kg + SB334867 10 mg/kg 15 min prior, n=11)	AMPAR/NMDAR ratio ([1]; saline + SB334867 10 mg/kg 15 min prior, n=5)	baseline locomotor activity (locomotor activity; 10 mg/kg i.p. with saline, n=13)	development of sensitization to cocaine (locomotor activity; 10 mg/kg i.p., 5 days)	locomotor activity on day 6 (expression of cocaine sensitization) (locomotor activity; 10 mg/kg injected with cocaine on day 6, n=7 in each group)	distance traveled on day 5 (locomotor activity; SB 334867 10 mg/kg i.p. 15 min prior to cocaine 15 mg/kg i.p.) [cm]	locomotor activity on day 1 (locomotor activity; cocaine-treated rats given SB334867 10 mg/kg, n=11) [cm]	AMPAR-induced current (AMPAR-induced current; AMPA 2 μM 30 sec + cyclothiazide 100 μM, 15 min after orexin A 100 nM, n=5) [pA]	AMPAR-induced current (AMPAR-induced current; AMPA 2 μM + cyclothiazide, 3-4 hours after orexin A 100 nM, n=6) [pA]	frequency of NMDAR mEPSCs (NMDAR mEPSCs; 3-4 hours after orexin A)	NMDAR mEPSC amplitude (NMDAR mEPSCs; 3-4 hours after orexin A, n=7) [pA]	frequency of NMDAR mEPSCs (NMDAR mEPSCs; 15 min after orexin A)	NMDAR mEPSC amplitude (NMDAR mEPSCs; 15 min after orexin A 100 nM, n=8) [pA]
Cc1nc2ccc(NC(=O)Nc3ccnc4cccnc34)cc2o1.Cl [SB 334867, 1-(2-methylbenzoxazol-6-yl)-3-[1,5]naphthyridin-4-yl urea hydrochloride]	blocked	0.5±0.08	0.4±0.02	did not reduce	significantly blocked	not significantly reduced	8504±2564	3579±1079	–	–	–	–	–	–
orexin A: neuropeptide synthesized in neurons of the LH; orexin receptor agonist selective for the OXR1 receptor (QPLPDCCRQKTCSCRLYELLHGAGNHAAGILTL; ends and bridges not checked; cysteine pairing not given here; UniProt O43612 34-66, looked up)	–	–	–	–	–	–	–	–	−243±79	−367±63	2.5±0.4	13.9±0.5	2.1±0.3	17.1±0.7
